Measured values as given in ChEMBL document CHEMBL4507293 (2021).

What was measured:
[1] = biological target: Microtubule-associated serine/threonine-protein kinase 1 (Homo sapiens) (UniProt Q9Y2H9); conditions: Compound concentration 100.0 nM
[2] = biological target: Dual specificity protein kinase TTK (Homo sapiens) (UniProt P33981); conditions: Compound concentration 100.0 nM
[3] = biological target: Mitogen-activated protein kinase kinase kinase 12 (Homo sapiens) (UniProt Q12852); conditions: Compound concentration 100.0 nM
[4] = biological target: Cyclin-dependent kinase 18 (Homo sapiens) (UniProt Q07002); conditions: Compound concentration 100.0 nM
[5] = system: Tyrosine-protein kinase ABL1 (Homo sapiens), P00519 [F317L]; conditions: Compound concentration 100.0 nM
[6] = biological target: Cyclin-dependent kinase-like 3 (Homo sapiens) (UniProt Q8IVW4); conditions: Compound concentration 100.0 nM
Cyclin-dependent kinase-like 3 (Homo sapiens), sequence (Q8IVW4 whole entry, looked up): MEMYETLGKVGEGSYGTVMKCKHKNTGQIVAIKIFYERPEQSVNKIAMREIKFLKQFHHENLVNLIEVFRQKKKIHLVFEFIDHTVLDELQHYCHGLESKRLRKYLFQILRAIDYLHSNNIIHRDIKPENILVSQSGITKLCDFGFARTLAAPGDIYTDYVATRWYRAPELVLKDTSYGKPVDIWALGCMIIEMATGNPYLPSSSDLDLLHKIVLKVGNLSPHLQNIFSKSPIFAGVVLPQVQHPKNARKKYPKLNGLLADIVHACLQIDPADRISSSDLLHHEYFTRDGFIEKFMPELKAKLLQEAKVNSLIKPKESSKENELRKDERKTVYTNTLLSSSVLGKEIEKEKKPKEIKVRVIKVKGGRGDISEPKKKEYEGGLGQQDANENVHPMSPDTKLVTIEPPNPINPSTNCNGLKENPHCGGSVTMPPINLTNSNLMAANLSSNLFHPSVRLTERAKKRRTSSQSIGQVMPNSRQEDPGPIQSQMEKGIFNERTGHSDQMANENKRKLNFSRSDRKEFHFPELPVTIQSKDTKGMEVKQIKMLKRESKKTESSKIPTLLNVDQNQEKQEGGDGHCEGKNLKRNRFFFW

[7] = biological target: Serine/threonine-protein kinase pim-1 (Homo sapiens) (UniProt P11309); conditions: Compound concentration 100.0 nM
[8] = biological target: Ephrin type-A receptor 8 (Homo sapiens) (UniProt P29322); conditions: Compound concentration 100.0 nM
Ephrin type-A receptor 8 (Homo sapiens), sequence (P29322 whole entry): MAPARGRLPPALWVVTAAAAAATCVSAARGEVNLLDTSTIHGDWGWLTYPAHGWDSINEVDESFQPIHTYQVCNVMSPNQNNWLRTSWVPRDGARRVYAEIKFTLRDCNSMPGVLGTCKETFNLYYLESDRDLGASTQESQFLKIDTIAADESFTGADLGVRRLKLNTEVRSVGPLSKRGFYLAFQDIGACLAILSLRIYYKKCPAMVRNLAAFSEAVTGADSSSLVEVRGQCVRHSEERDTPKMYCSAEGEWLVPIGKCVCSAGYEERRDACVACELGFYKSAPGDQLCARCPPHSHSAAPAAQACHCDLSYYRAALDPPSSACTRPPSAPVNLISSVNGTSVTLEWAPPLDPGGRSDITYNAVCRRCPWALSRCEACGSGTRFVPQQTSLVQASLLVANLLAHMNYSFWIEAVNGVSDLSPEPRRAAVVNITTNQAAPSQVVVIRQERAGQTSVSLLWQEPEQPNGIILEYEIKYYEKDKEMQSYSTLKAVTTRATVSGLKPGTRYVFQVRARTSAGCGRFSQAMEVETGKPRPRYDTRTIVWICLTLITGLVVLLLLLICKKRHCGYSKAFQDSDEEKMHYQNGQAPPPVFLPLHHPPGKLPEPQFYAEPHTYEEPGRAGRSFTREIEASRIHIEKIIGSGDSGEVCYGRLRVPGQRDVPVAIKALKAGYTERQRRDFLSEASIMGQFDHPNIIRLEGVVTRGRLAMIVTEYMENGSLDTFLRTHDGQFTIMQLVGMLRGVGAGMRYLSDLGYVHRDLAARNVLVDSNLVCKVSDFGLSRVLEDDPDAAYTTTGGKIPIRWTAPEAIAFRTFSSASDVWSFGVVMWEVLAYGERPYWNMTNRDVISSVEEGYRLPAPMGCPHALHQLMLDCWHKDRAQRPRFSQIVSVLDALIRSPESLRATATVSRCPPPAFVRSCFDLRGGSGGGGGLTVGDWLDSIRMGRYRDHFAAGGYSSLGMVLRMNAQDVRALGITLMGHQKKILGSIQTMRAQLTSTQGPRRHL

[9] = system: Tyrosine-protein kinase ABL1 (Homo sapiens), P00519 [H396P]; conditions: Compound concentration 100.0 nM
[10] = biological target: Activated CDC42 kinase 1 (Homo sapiens) (UniProt Q07912); conditions: Compound concentration 100.0 nM
[11] = system: Leucine-rich repeat serine/threonine-protein kinase 2 (Homo sapiens), Q5S007 [G2019S]; conditions: Compound concentration 100.0 nM
[12] = biological target: NUAK family SNF1-like kinase 2 (Homo sapiens) (UniProt Q9H093); conditions: Compound concentration 100.0 nM
[13] = biological target: Serine/threonine-protein kinase TNNI3K (Homo sapiens) (UniProt Q59H18); conditions: Compound concentration 100.0 nM
[14] = system: Epidermal growth factor receptor (Homo sapiens), P00533 [UNDEFINED MUTATION]; conditions: Compound concentration 100.0 nM
[15] = biological target: Serine/threonine-protein kinase Sgk2 (Homo sapiens) (UniProt Q9HBY8); conditions: Compound concentration 100.0 nM
[16] = biological target: Serine/threonine-protein kinase PAK 5 (Homo sapiens) (UniProt Q9P286); conditions: Compound concentration 100.0 nM
[17] = biological target: GABA-A receptor; anion channel (Rattus norvegicus) (UniProt O09028+P15431+P18506+P18508+P19969+P20236+P23574+P23576+P28471+P28473+P30191+P62813+P63079+P63138+Q91ZM7+Q9ES14); conditions: Compound concentration 10.0 uM
[18] = biological target: T1, Alpha-1A adrenergic receptor (Homo sapiens) (UniProt P35348); conditions: Compound concentration 10.0 uM
T1 sequence (whole entry): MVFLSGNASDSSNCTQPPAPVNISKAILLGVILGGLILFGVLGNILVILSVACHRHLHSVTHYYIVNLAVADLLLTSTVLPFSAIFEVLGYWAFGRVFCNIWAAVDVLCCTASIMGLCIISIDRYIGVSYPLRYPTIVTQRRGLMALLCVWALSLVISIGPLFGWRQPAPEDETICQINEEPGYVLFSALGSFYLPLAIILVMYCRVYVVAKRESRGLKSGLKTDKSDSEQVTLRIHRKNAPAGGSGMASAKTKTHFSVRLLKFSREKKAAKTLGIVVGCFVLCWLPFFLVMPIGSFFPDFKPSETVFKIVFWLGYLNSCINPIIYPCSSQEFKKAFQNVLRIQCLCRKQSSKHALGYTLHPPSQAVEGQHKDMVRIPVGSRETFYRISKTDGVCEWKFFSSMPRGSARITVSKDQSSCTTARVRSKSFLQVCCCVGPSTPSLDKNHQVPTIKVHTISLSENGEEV

[19] = biological target: Tyrosine-protein kinase JAK1 (Homo sapiens) (UniProt P23458); conditions: Compound concentration 100.0 nM
[20] = biological target: Muscarinic acetylcholine receptor M3 (Homo sapiens) (UniProt P20309); conditions: Compound concentration 10.0 uM
[21] = biological target: Serine/threonine-protein kinase RIO2 (Homo sapiens) (UniProt Q9BVS4); conditions: Compound concentration 100.0 nM
[22] = biological target: Tyrosine-protein kinase JAK2 (Homo sapiens) (UniProt O60674); conditions: Compound concentration 100.0 nM
[23] = biological target: Cyclin-dependent kinase-like 5 (Homo sapiens) (UniProt O76039); conditions: Compound concentration 100.0 nM
[24] = biological target: Tyrosine-protein kinase HCK (Homo sapiens) (UniProt P08631); conditions: Compound concentration 100.0 nM
[25] = biological target: Mitogen-activated protein kinase kinase kinase 6 (Homo sapiens) (UniProt O95382); conditions: Compound concentration 100.0 nM
[26] = biological target: Ribosomal protein S6 kinase alpha-5 (Homo sapiens) (UniProt O75582); conditions: Compound concentration 100.0 nM
[27] = biological target: Serine/threonine-protein kinase PknB (Mycobacterium tuberculosis) (UniProt P9WI81); conditions: Compound concentration 100.0 nM
[28] = system: Epidermal growth factor receptor (Homo sapiens), P00533 [L858R,T790M]; conditions: Compound concentration 100.0 nM
[29] = biological target: Hormonally up-regulated neu tumor-associated kinase (Homo sapiens) (UniProt P57058); conditions: Compound concentration 100.0 nM
[30] = biological target: Serine/threonine-protein kinase MRCK beta (Homo sapiens) (UniProt Q9Y5S2); conditions: Compound concentration 100.0 nM
[31] = biological target: Tyrosine-protein kinase BTK (Homo sapiens) (UniProt Q06187); conditions: Compound concentration 100.0 nM
Tyrosine-protein kinase BTK (Homo sapiens), sequence (Q06187 whole entry, canonical isoform): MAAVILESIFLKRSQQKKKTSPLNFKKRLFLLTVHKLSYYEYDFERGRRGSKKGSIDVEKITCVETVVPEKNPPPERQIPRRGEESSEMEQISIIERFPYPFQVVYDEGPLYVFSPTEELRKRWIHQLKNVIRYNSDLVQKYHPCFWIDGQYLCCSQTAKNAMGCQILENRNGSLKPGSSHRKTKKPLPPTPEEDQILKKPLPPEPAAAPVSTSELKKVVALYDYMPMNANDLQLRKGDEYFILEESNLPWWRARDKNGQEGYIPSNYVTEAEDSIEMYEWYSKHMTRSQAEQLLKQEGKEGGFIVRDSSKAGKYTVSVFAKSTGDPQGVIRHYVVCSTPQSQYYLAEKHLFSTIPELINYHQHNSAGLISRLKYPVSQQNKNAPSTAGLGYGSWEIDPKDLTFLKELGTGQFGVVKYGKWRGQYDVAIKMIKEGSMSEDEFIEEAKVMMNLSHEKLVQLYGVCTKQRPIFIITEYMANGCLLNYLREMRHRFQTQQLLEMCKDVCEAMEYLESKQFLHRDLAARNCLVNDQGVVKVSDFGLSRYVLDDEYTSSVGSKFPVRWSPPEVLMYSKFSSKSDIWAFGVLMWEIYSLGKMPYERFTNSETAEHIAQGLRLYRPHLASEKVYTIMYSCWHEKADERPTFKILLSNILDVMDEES

[32] = biological target: Phosphatidylinositol 4,5-bisphosphate 3-kinase catalytic subunit alpha isoform (Homo sapiens) (UniProt P42336); conditions: Compound concentration 100.0 nM
[33] = biological target: Dual specificity mitogen-activated protein kinase kinase 6 (Homo sapiens) (UniProt P52564); conditions: Compound concentration 100.0 nM
Dual specificity mitogen-activated protein kinase kinase 6 (Homo sapiens), sequence (P52564 whole entry): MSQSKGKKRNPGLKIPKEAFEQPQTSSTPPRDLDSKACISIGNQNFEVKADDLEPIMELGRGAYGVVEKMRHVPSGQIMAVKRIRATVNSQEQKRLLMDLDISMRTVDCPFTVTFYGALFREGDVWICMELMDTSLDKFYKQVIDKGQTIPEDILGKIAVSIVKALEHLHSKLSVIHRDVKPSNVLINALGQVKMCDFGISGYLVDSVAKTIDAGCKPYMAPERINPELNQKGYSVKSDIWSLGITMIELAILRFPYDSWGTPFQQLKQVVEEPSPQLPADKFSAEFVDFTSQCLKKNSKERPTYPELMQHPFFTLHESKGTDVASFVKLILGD

[34] = organism: Rattus norvegicus; conditions: Compound concentration 10.0 uM
[35] = biological target: Serine/threonine-protein kinase tousled-like 1 (Homo sapiens) (UniProt Q9UKI8); conditions: Compound concentration 100.0 nM
[36] = system: Receptor-type tyrosine-protein kinase FLT3 (Homo sapiens), P36888 [R834Q]; conditions: Compound concentration 100.0 nM
[37] = biological target: Mitogen-activated protein kinase 6 (Homo sapiens) (UniProt Q16659); conditions: Compound concentration 100.0 nM
Mitogen-activated protein kinase 6 (Homo sapiens), sequence (Q16659 whole entry): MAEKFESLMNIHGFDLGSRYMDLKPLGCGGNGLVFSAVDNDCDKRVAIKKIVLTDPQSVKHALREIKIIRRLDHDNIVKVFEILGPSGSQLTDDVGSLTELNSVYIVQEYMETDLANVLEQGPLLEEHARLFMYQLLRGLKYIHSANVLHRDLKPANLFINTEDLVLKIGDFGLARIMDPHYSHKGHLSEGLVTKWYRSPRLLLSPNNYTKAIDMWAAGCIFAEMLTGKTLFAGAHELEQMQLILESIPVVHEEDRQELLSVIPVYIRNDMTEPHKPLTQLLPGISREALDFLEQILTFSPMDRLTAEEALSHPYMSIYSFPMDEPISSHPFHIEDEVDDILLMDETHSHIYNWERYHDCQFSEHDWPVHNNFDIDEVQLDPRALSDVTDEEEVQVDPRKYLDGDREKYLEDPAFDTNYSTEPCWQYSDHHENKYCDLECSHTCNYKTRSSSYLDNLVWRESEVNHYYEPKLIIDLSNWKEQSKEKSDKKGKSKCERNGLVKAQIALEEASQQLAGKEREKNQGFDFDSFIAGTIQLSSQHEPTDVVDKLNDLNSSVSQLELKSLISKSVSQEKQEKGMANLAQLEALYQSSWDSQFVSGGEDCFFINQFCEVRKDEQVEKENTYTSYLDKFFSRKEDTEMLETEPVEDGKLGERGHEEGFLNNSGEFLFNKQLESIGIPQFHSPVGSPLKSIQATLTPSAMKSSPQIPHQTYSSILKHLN

Microtubule-associated serine/threonine-protein kinase 1 (Homo sapiens), sequence (Q9Y2H9 whole entry, looked up): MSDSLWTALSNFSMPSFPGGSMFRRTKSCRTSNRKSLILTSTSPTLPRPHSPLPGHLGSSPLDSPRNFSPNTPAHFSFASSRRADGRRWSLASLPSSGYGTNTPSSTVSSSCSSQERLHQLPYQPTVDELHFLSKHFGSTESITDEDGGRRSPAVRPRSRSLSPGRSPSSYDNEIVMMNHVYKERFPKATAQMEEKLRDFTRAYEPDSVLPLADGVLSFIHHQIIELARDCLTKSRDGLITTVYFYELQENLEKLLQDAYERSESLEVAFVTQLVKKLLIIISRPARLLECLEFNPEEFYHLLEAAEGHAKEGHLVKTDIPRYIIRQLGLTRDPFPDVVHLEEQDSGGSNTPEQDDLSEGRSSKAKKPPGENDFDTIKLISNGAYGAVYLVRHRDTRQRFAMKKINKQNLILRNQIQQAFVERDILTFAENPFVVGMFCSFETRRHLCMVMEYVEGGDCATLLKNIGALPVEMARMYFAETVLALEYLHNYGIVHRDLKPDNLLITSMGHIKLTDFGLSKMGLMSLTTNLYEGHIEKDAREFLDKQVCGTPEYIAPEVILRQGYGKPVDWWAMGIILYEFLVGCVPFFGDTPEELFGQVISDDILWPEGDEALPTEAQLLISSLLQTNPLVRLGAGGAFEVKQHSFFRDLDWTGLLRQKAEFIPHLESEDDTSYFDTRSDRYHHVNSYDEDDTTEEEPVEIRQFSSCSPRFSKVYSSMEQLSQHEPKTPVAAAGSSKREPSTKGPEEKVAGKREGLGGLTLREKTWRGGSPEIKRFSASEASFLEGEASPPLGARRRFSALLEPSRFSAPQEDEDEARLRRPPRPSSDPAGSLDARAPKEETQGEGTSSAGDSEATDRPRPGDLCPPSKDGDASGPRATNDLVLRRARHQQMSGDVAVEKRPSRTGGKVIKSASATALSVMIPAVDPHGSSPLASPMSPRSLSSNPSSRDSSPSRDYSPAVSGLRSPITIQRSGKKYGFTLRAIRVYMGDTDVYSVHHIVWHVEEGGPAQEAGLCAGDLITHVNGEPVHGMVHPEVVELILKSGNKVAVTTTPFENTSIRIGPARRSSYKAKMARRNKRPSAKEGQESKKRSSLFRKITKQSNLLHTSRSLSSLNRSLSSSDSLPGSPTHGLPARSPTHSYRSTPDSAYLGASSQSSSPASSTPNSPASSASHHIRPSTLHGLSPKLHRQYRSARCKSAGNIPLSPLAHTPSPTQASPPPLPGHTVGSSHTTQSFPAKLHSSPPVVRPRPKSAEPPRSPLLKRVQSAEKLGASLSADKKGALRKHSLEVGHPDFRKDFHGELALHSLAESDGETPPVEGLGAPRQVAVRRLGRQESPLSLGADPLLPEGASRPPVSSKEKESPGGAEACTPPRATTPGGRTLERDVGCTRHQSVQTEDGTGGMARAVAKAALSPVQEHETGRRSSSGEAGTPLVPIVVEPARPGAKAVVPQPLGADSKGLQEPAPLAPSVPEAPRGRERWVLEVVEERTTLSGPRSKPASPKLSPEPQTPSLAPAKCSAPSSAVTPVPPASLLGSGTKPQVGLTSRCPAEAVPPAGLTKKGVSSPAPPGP

COCCOc1nc(-c2ccc(Cl)nc2)nc2c1CN(C(=O)c1ncn3ccccc13)CC2 [THPP-1]
inactive: residual activity [1] 100% | residual activity [2] 100% | residual activity [3] 97% | residual activity [4] 100% | residual activity [5] 100% | residual activity [6] 96% | residual activity [7] 100% | residual activity [8] 100% | residual activity [9] 70% | residual activity [10] 100% | residual activity [11] 100% | residual activity [12] 100% | residual activity [13] 100% | residual activity [14] 100% | residual activity [15] 88% | residual activity [16] 100% | inhibition [17] 15% | inhibition [18] 12.7% | residual activity [19] 76% | inhibition [20] 3.95% | residual activity [21] 100% | residual activity [22] 100% | residual activity [23] 100% | residual activity [24] 100% | residual activity [25] 100% | residual activity [26] 100% | residual activity [27] 86% | residual activity [28] 100% | residual activity [29] 78% | residual activity [30] 100% | residual activity [31] 100% | residual activity [32] 85% | residual activity [33] 100% | inhibition [34] 26.1% | residual activity [35] 100% | residual activity [36] 65% | residual activity [37] 100%

CC(C)CC(=O)N1CCc2nc(-c3ccc(Br)cc3)nc(N(C)Cc3ccccc3)c2C1 [THPP-1-NC]
inactive: residual activity [1] 100% | residual activity [2] 100% | residual activity [3] 90% | residual activity [4] 100% | residual activity [5] 100% | residual activity [6] 89% | residual activity [7] 100% | residual activity [8] 100% | residual activity [9] 68% | residual activity [10] 99% | residual activity [11] 100% | residual activity [12] 100% | residual activity [13] 100% | residual activity [14] 99% | residual activity [15] 94% | residual activity [16] 100% | inhibition [17] -4.66% | inhibition [18] -1.11% | residual activity [19] 71% | inhibition [20] 13.5% | residual activity [21] 100% | residual activity [22] 100% | residual activity [23] 100% | residual activity [24] 94% | residual activity [25] 100% | residual activity [26] 100% | residual activity [27] 97% | residual activity [28] 100% | residual activity [29] 86% | residual activity [30] 99% | residual activity [31] 100% | residual activity [32] 77% | residual activity [33] 100% | inhibition [34] 41% | residual activity [35] 100% | residual activity [36] 65% | residual activity [37] 100%
